Laboratory results: patent publication US20200268832A1, “COMPOSITIONS FOR DELIVERY TO AND TREATMENT OF ATHEROSCLEROTIC PLAQUES” (Sanford Burnham Prebys Medical Discovery Institute, priority 2015, published 2020)
Entries after “also recorded” stand apart in the source; their conditions may differ.

Experiments:
[1] = test system: plaque macrophages; assay: Cytotoxicity to plaque macrophages ex vivo; type: cell-based
From the text: Two of the hits from the screen passed all the specificity tests, and one of these has been characterized to some extent in vivo (FIG. 10). […] Thus, the discovered compounds, especially #008 and #7933989, served as a starting point for other compounds with affinity for p32. Orally available compounds provide significant new opportunities in prevention and treatment of atherosclerosis.

[2] = test system: atherosclerotic plaques; assay: Plaque homing of FAM-labeled #008-NWs in atherosclerotic mouse; type: in vivo; settings: 1 mg/ml, 200 μl, IV, two hours circulation; listed as #008
[3] = test system: orthotopic MCF10Ca1A breast tumors; assay: In vivo homing of iron oxide nanoworms in tumor-bearing mice; settings: IV, 7.5 mg Fe/kg, 5-6 hours circulation
Method: FIG. 10 is a graph of nanoparticles functionalized with compound #008 homing to tumors and atherosclerotic plaques. Orthotopic MCF10Ca1Abreast tumors from mice injected with iron oxide […] (NWs) (7.5 mg/kg of Fe) coated with FAM-#008 or with an inert peptide (control). The NWs were allowed to circulate for 5 hours, the mice were perfused through the heart with PBS and tumors, and organs were collected. Quantification of fluorescence carried out with ImageJ software. Multiple sections from three tumors were analyzed (P<0.0001, Student's t-test).
Animal experimentation was performed according to the procedures approved by the Animal Research Committee at the Sanford-Burnham Medical Research Institute, San Diego. […] FAM labeled #4014008-NWs were injected into the tail vein (7.5 mg of iron per kilogram of body weight), the animals were euthanized 5-6 hours after the injection by cardiac perfusion with PBS under anesthesia, and organs were dissected and analyzed for particle homing. […]
For immunostaining, […] tissue sections were first incubated for 1 hour at room temperature with 10% serum from the species in which the secondary antibody was generated, followed by incubation with the primary antibody overnight at 4° C. […] The primary antibodies were detected with Alexa 594 goat anti-rat and 594 goat anti-rabbit secondary antibodies (1:1000; Molecular Probes). […]

[4] = molecular target: T1, p32 protein (Homo sapiens, UniProt Q07021); assay: TT1 phage binding inhibition assay (ELISA-type); settings: 100 μM compound
T1 construct: 6xHis; host or cells: Rosetta-gami-2 cells (Novagen); an E. coli strain by own knowledge
T1 sequence (Q07021 74-282): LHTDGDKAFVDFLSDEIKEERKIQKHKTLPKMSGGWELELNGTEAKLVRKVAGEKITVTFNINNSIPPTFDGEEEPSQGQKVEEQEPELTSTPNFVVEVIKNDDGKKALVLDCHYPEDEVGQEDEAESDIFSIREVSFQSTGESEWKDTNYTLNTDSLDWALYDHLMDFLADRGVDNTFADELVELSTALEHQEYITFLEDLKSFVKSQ
Method: The binding of individual phage to p32 was verified using ELISA-type of phage binding assay. 96-well plates (Corning Life Sciences, Tewksbury, Mass., USA) were coated with 100 μL of 5 μg/mL p32 in PBS at 4° C. overnight, washed 3 times with 200 μL of PBST (PBS+0.05% Tween-20), blocked with 200 μL of 0.5% bovine serum albumin (BSA) in PBST for 1 h at 37° C., and washed 3 times with PBST. Phages (1.11*10^8 pfu in 100 μL PBST) were added to p32-coated/BSA-blocked wells, the plate was incubated at 4° C. overnight, and washed 3 times with PBST. Subsequently, the plates were incubated with 100 μL in-house prepared polyclonal rabbit anti-T7 antibody diluted 1:1000 in PBST for 1 h at 4° C., and washed 3 times with washing buffer. Horseradish peroxidase (HRP)-labeled anti-rabbit IgG (Sigma-Aldrich) was diluted 1:1000 in PBS, and 100 μL was added to the wells, followed by 1 h incubation at 4° C. and washing 3 times. Next, 100 μL of OPD silver and gold substrate (Sigma-Aldrich) was added to the wells and incubated at room temperature until visible color was observed (<30 min). The reaction was stopped by adding 50 μL of 1M H2SO4, and the plate was read at 492 nm (Varioskan Flash, Thermo Scientific, Waltham, Mass., USA).
The ability to inhibit TT1-phage binding to p32 protein was used as a secondary assay to verify the hit compounds. The competition assay was based on the phage binding assay described above with minor modifications. ELISA plates were coated with 2.5 μg/mL p32, incubated with phages (1.11*10^8 pfu in 100 μL PBST) and 100 μM hit compounds at 4° C. overnight, and followed by antibody incubation and chromogenic reaction. Negative controls included DMSO at concentration it was used to dissolve the hit compounds.

inhibition at 100 µM [4]: 50%
SMILES: Cc1cnccc1NCCN [Compound 4014008, N-(3-methylpyridin-4-yl)ethane-1,2-diamine]
cytotoxicity to plaque macrophages [1]: cytotoxic to plaque macrophages | nanoparticle homing/accumulation in plaques [2]: specifically home; also recorded: directs nanoparticle accumulation in plaques | homing to MCF10Ca1A tumors [3]: specifically home to tumors
